For eleven molecules, EC50 and CC50 results are on record in patent US20150158862A1, “1,3-DIHYDRO-2H-BENZIMIDAZOL-2-ONE DERIVATIVES SUBSTITUTED WITH HETEROCYCLES AS RESPIRATORY SYNCYTIAL VIRUS ANTIVIRAL AGENTS” (Janssen R&D Ireland, priority 2012, published 2015).

In one series the test system is rgRSV224 virus. Briefly: Antiviral activity: inhibition of GFP expression of rgRSV224 virus in HeLa cells. In kind it is cell-based, respiratory syncytial virus (RSV). To be noted: human respiratory syncytial virus, 72 h, read-out: WT activity EC50. The protocol:
(§1) Black 96-well clear-bottom microtiter plates (Corning, Amsterdam, The Netherlands) were filled in duplicate using a customized robot system with serial 4-fold dilutions of compound in a final volume of 50 μl culture medium [RPMI medium without phenol red, 10% FBS, 0.04% gentamycin (50 mg/ml) and 0.5% DMSO]. Then, 100 μl of a HeLa cell suspension (5×10^4 cells/ml) in culture medium was added to each well followed by the addition of 50 μl rgRSV224 (MOI=0.02) virus in culture medium using a multidrop dispenser (Thermo Scientific, Erembodegem, Belgium). rgRSV224 virus is an engineered virus that includes an additional GFP gene (Hallak et al, 2000) and was in-licensed from the NIH (Bethesda, Md., USA). Medium, virus- and mock-infected controls were included in each test. Cells were incubated at 37° C. in a 5% CO2 atmosphere. Three days post-virus exposure, viral replication was quantified by measuring GFP expression in the cells by a MSM laser microscope (Tibotec, Beerse, Belgium). The EC50 was defined as the 50% inhibitory concentration for GFP expression. In parallel, compounds were incubated for three days in a set of white 96-well microtitier plates (Corning) and the cytotoxicity of compounds in HeLa cells was determined by measuring the ATP content of the cells using the ATPlite kit (PerkinElmer, Zaventem, Belgium) according to the manufacturer's instructions. The CC50 was defined as the 50% concentration for cytotoxicity.

The next series can be described thus: in vitro. In kind it is cell-based. As to conditions: human. The protocol:
as §1

pEC50: −log10 of the molar value. A value given as a limit tells only on which side of the number the result lay.

Usually pEC50 stands for the EC50 on a negative log10 scale, so that one unit is a factor of ten. For orientation: CC50 means the concentration at which the toxic effect on the cells reaches its halfway point. Low values mean greater toxicity to the cells, high ones lower toxicity to the cells. On to `CS(=O)(=O)CCCn1c(Cn2c(=O)n(CC(F)(F)F)c3c(Cl)cccc32)cc2cc(Cl)ccc21` [Compound P1, 4-chloro-1-((5-chloro-1-(3-(methylsulfonyl)-propyl)-1H-indol-2-yl)methyl)-3-(2,2,2-trifluoroethyl)-1H-benzo[d]imidazo-2(3H)-one], for which the pEC50 with rgRSV224 virus was 6.40. Moreover, the CC50 at 3 days in the series “in vitro” was more than 100000 nM.

In the case of `O=c1n(Cc2cc3cc(Cl)ccc3n2CCCC(F)(F)F)c2cncc(Cl)c2n1CC(F)(F)F` [Compound P2], in the series on rgRSV224 virus, the pEC50 was 7.00. Further, the CC50 at 3 days in “in vitro” is more than 100000 nM.

As to `CS(=O)(=O)CCCn1c(Cn2c(=O)n(C3CC3)c3c(Cl)cncc32)cc2cc(Cl)ccc21` [Compound P3], the pEC50 in the series on rgRSV224 virus is 7.70. In the series “in vitro”, this molecule yielded a CC50 at 3 days of more than 100000 nM.

For the molecule `Cc1cncc2c1n(C1CC1)c(=O)n2Cc1cc2cc(Cl)ccc2n1CCCS(C)(=O)=O` [Compound P4], the pEC50 with rgRSV224 virus was 7.70. The same molecule registered a CC50 at 3 days in the series “in vitro” of more than 100000 nM.

Consider `CS(=O)(=O)CCCn1c(Cn2c(=O)n(CC(F)(F)F)c3c(Cl)cncc32)cc2cc(Cl)ccc21` [Compound P5, 7-chloro-3-((5-chloro-1-(3-(methylsulfonyl)propyl)-1H-indol-2-yl)-methyl)-1-(2,2,2-trifluoroethyl)-1H-imidazo[4,5-c]pyridin-2(3H)-one], for which the pEC50 in the series on rgRSV224 virus is 7.60. The molecule further gave a CC50 at 3 days in the series “in vitro” of 31600 nM.

Turning to `CS(=O)(=O)CCCn1c(Cn2c(=O)n(C3CC3)c3c(Cl)cccc32)cc2cc(Cl)ccc21` [Compound P6], in the series on rgRSV224 virus, the pEC50 was 6.20. Moreover, half-maximal cytotoxicity in the series “in vitro” (CC50 at 3 days) was put at 31600 nM.

`O=c1n(Cc2cc3cc(Cl)ccc3n2CCCC(F)(F)F)c2cccc(Cl)c2n1CC(F)(F)F` [Compound P7, 4-chloro-1-((5-chloro-1-(4,4,4-trifluorobutyl)-1H-indol-2yl)methyl)-3-(2,2,2-trifluoroethyl)-1H-benzo [d]imidazol-2(3H)-one] came in with a CC50 at 3 days in “in vitro” of more than 100000 nM.

For the molecule `Cc1cncc2c1n(CC(F)(F)F)c(=O)n2Cc1cc2cc(Cl)ccc2n1CCCS(C)(=O)=O` [Compound P8, 3-((5-chloro-1-(3-(methylsulfonyl)propyl)-1H-indol-2-yl)methyl)-7-methyl-1-(2,2,2-trifluoroethyl)-1H-imidazo[4,5-c]pyridin-2(3H)-one], in the series on rgRSV224 virus, the pEC50 was 7.00. Also, the CC50 at 3 days in “in vitro” is 50100 nM.

Take `CC(C)CCn1c(Cn2c(=O)n(C3CC3)c3c(Cl)cccc32)nc2nc(Cl)ccc21` [Compound P9, 4-chloro-1-((5-chloro-1-isopentyl-1H-imidazo[4,5-b]pyridin-2-yl)-methyl)-3-cyclopropyl-1H-benzo[d]imidazol-2(3H)-one]: the pEC50 in the series on rgRSV224 virus was 6.10. Besides, in “in vitro”, the CC50 at 3 days is more than 25000 nM.

As for `Cc1cccc2c1n(C1CC1)c(=O)n2Cc1nc2nc(Cl)ccc2n1CCC(C)C` [Compound P10, 1-((5-chloro-1-isopentyl-1H-imidazo[4,5-b]pyridin-2-yl)methyl)-3-cyclopropyl-4-methyl-1H-benzo[d]imidazol-2(3H)-one], the negative logarithm of the EC50 (pEC50) with rgRSV224 virus is 6.40. In “in vitro”, this molecule registered a CC50 at 3 days of more than 50000 nM.

Regarding `Cc1cccc2c1n(C1CC1)c(=O)n2Cc1cc2nc(Cl)ccc2n1CCCC(F)(F)F` [Compound P11, 1-((5-chloro-1-(4,4,4-trifluorobutyl)-1H-pyrrolo[3,2-b]pyridin-2-yl)-methyl)-3-cyclopropyl-4-methyl-1H-benzo[d]imidazol-2(3H)-one], the pEC50 with rgRSV224 virus was 5.20. This molecule came in with a CC50 at 3 days in the series “in vitro” of 12600 nM.
